{"source": "patent US8158605B2", "about": "“Azacytidine analogues and uses thereof” (Mount Sinai School of Medicine, priority 2007, dated 2012)", "key": {"5637": {"system": "5637", "assay": "WST-1 cytotoxicity assay", "assay_type": "cell-based", "protocol": "(§1) Human promyelocytic leukemia cell lines HL60, human histiocytic lymphoma U937, human chronic myelogenous leukemia K562, human acute T cell Jurkat, breast adenocarcinoma MCF-7, urinary bladder carcinoma 5637, prostate carcinoma DU-145 were purchased from American Type Culture Collection. All cell lines except Jurkat were maintained in RPMI 1640 medium (Gibco, Glasgow, UK) supplemented with 10% heat-inactivated fetal calf serum (FCS), 100 U/ml of penicillin, and […] streptomycin, in an atmosphere of 5% CO2 at 37° C. Jurkat cells were cultured in RPMI 1640 medium supplemented with 1.5 g/L sodium bicarbonate, 4.5 g/L glucose, 10 mM sodium pyruvate, and 10% FCS, 100 U/ml of penicillin, and […] streptomycin.\n(§2) MCF-7, DU-145, and 5637 cells (1×10^4/ml) were plated and allowed to adhere and spread for 24 hours. […] Cultures were incubated with WST-1 reagent for 1 hour. The production of formazan was measured by a microplate reader (Bio-Tek Instruments, Elx 800) at 450 nm with a reference wavelength of 650 nm. Growth inhibition was determined as compared to untreated cells (%). IC50 values were calculated using CalcuSyn software (Biosoft)."}, "DU145": {"system": "DU145", "assay": "WST-1 cytotoxicity assay", "assay_type": "cell-based", "conditions": "Homo sapiens, DU-145", "protocol": "as §1, §2"}, "HL60": {"system": "HL60", "assay": "WST-1 cytotoxicity assay", "assay_type": "cell-based", "conditions": "Homo sapiens, HL-60", "protocol": "as §1, §2"}, "Jurkat": {"system": "Jurkat", "assay": "WST-1 cytotoxicity assay", "assay_type": "cell-based", "conditions": "Homo sapiens", "protocol": "as §1, §2"}, "K562": {"system": "K562", "assay": "WST-1 cytotoxicity assay", "assay_type": "cell-based", "conditions": "Homo sapiens", "protocol": "as §1, §2"}, "MCF-7": {"system": "MCF-7", "assay": "WST-1 cytotoxicity assay", "assay_type": "cell-based", "conditions": "Homo sapiens, MCF7", "protocol": "as §1, §2"}, "U937": {"system": "U937", "assay": "WST-1 cytotoxicity assay", "assay_type": "cell-based", "conditions": "Homo sapiens, U-937", "protocol": "as §1, §2"}, "[1]": {"system": "U937, HL60 and K562 cells", "assay": "Differentiating induction (NBT reduction, benzidine staining)", "assay_type": "cell-based, human", "conditions": "repeated exposure for 11 (HL60) or 14 (U937, K562) days", "protocol": "Cell differentiation was studied in terms of morphology. […] After initial treatment on day 0, cells were exposed to the new portions of drugs on day 4, 7, and 10. The differentiation was evaluated by NBT reduction assay (U937 and HL60) or by benzidine staining (K562)."}, "[2]": {"system": "MT-3/ADR resistant breast carcinoma", "assay": "MTT cytotoxicity", "assay_type": "cell-based", "conditions": "MDR1, MT-3/ADR resistant breast carcinoma (overexpress MDR-1/p-glycoprotein), 24 hours", "protocol": "(§3) The cytotoxicity of Aza-C and 5-Aza-C-5′-elaidic acid was determined in a breast cancer cell line MT-3 and the adriablastin resistant cell line MT-3/ADR. The MT-3/ADR overexpress the MDR-1/p-glycoprotein. […] The cells were incubated for 24 hours. […] Six wells were used per test concentration. The cells were incubated with test compound for 24 hours. […] Similar activity was obtained for Aza-C and 5-Aza-C-5′-elaidic acid in the MT-3 breast carcinoma cell line, but in the MT-3/ADR resistant cell line the activity of Aza-C was lost. […] This may be of importance in the treatment of resistant cancer."}, "[3]": {"system": "breast carcinoma cell line MT-3", "assay": "MTT cytotoxicity", "assay_type": "cell-based", "conditions": "MT-3 breast carcinoma, 24 hours", "protocol": "as §3"}, "[4]": {"system": "Hela cervix carcinoma cells", "assay": "MTT cytotoxicity with or without nucleoside transport inhibitor dipyridamole", "assay_type": "cell-based", "conditions": "for IC50: Homo sapiens, HeLa, 72 h, MTT", "protocol": "Dipyridamole was used as an inhibitor of the equilibrative nucleoside transporters hENT1 and hENT2. […] The cells were pre-incubated for 24 hours. Dipyridamole (10 μM) was added to the cells 30 minutes prior to the addition of the test compounds. […] Six wells were used per test concentration. The cells were incubated with test compound for 72 hours."}, "NFκB": {"system": "NFκB", "assay": "LPS stimulated NFκB luciferase reporter activity in U937 cells", "assay_type": "cell-based, human", "conditions": "10 nM, LPS 1 μg/ml, 1, 3 or 6 hours, compared to DMSO treated control", "protocol": "NFκB-luciferase reporter genes were used to determine the influence of Aza-C and 5-Aza-C-5′-elaidic acid on NFκB-induced luciferase activity in a human monocytic cell line U937, stably transfected with a luciferase reporter containing three NFκB-binding sites. The induction of NFκB was performed using lipopolysaccharide (LPS) at 1 μg/ml for 30 minutes prior to the addition of Aza-C or 5-Aza-C-5′-elaidic acid in the concentrations 10 nM to the medium. The cells were cultured in RPMI-1640 medium including 10% fetal bovine serum. Before stimulation with LPS the cells were transferred to medium containing only 2% fetal bovine serum. Luciferase activity was measured by imaging in an IVIS imaging System 100 (Xenogen Corp., USA) after 1, 3 or 6 hours. The LPS stimulation increased with time over the 6 hours followed in the DMSO treated control cells. […] Generally, a positive stimulation of NFκB as observed for azacytidine is not positive, and it is positive that the LPS stimulation is not further increased by 5′Aza-C-5′-elaidic acid."}, "[5]": {"conditions": "clinical plasma samples; cited from earlier work"}}, "data": [{"smiles": "Nc1ncn([C@@H]2O[C@H](CO)[C@@H](O)[C@H]2O)c(=O)n1", "note": "[5-AzaC, 5-azacytidine, reference compound]", "values": [{"measurement": "IC50", "setting": "5637; 5637, 24 hour treatment", "value": 24.6, "unit": "µM"}, {"measurement": "IC50", "setting": "5637; 5637, 48 hour treatment", "value": 6.72, "unit": "µM"}, {"measurement": "IC50", "setting": "5637; 5637, 72 hour treatment", "value": 5.21, "unit": "µM"}, {"measurement": "IC50", "setting": "DU145; DU145, 24 hour treatment", "value": 20.9, "unit": "µM"}, {"measurement": "IC50", "setting": "DU145; DU145, 48 hour treatment", "value": 7.11, "unit": "µM"}, {"measurement": "IC50", "setting": "DU145; DU145, 72 hour treatment", "value": 7.2, "unit": "µM"}, {"measurement": "IC50", "setting": "HL60; HL60, 24 hour treatment", "value": 7.28, "unit": "µM"}, {"measurement": "IC50", "setting": "HL60; HL60, 48 hour treatment", "value": 4.92, "unit": "µM"}, {"measurement": "IC50", "setting": "HL60; HL60, 72 hour treatment", "value": 4.71, "unit": "µM"}, {"measurement": "IC50", "setting": "Jurkat; 24 hour treatment", "value": 9.5, "unit": "µM"}, {"measurement": "IC50", "setting": "Jurkat; 48 hour treatment", "value": 5.32, "unit": "µM"}, {"measurement": "IC50", "setting": "Jurkat; 72 hour treatment", "value": 4.77, "unit": "µM"}, {"measurement": "IC50", "setting": "K562; K562, 24 hour treatment", "value": 8.27, "unit": "µM"}, {"measurement": "IC50", "setting": "K562; K562, 48 hour treatment", "value": 15.5, "unit": "µM"}, {"measurement": "IC50", "setting": "K562; K562, 72 hour treatment", "value": 5.83, "unit": "µM"}, {"measurement": "IC50", "setting": "MCF-7; MCF-7, 24 hour treatment", "value": "> 160", "unit": "µM"}, {"measurement": "IC50", "setting": "MCF-7; MCF-7, 48 hour treatment", "value": 93.7, "unit": "µM"}, {"measurement": "IC50", "setting": "MCF-7; MCF-7, 72 hour treatment", "value": 53, "unit": "µM"}, {"measurement": "IC50", "setting": "U937; U937, 24 hour treatment", "value": 1.63, "unit": "µM"}, {"measurement": "IC50", "setting": "U937; U937, 48 hour treatment", "value": 2.37, "unit": "µM"}, {"measurement": "IC50", "setting": "U937; U937, 72 hour treatment", "value": 4.77, "unit": "µM"}, {"measurement": "differentiation induction", "setting": "[1]", "value": "did not induce significant differentiation"}, {"measurement": "IC50", "setting": "[2]", "value": "> 100", "unit": "µM"}, {"measurement": "IC50", "setting": "[3]", "value": "12.6 ± 2.35", "unit": "µM"}, {"measurement": "activity reduced by addition of dipyridamole", "setting": "[4]; Hela, with vs without dipyridamole", "value": 3, "unit": "fold"}, {"measurement": "IC50", "setting": "[4]; Hela with dipyridamole (10 μM)", "value": 12.8, "unit": "µM"}, {"measurement": "IC50", "setting": "[4]; without dipyridamole", "value": 4.32, "unit": "µM"}, {"measurement": "LPS stimulated NFκB luciferase activity", "setting": "NFκB", "value": "further increased the LPS induced NFκB activation"}, {"measurement": "average terminal half-life", "setting": "[5]", "value": "1.50 ± 2.30", "unit": "h"}]}]}
